{"source": "patent US20260216255A1", "about": "“STRAIN OF COLLINSELLA, AND PHARMACEUTICAL COMPOSITION THEREOF” (MOON (GUANGZHOU) BIOTECH CO., LTD., priority 2022, published 2026)", "tested_on": "strain MNH 18574", "assay": "Antibiotic sensitivity test by disk diffusion method", "format": "cell-based, Collinsella sp.", "settings": "for Diameter of inhibition zone: strain MNH 18574", "protocol": "An antibiotic sensitivity test was carried out on the strain MNH 18574 by a disk diffusion method.", "data": [{"compound": "CN(C)[C@@H]1C(O)=C(C(N)=O)C(=O)[C@@]2(O)C(O)=C3C(=O)c4c(O)cccc4[C@@](C)(O)[C@H]3C[C@@H]12", "note": "[Tetracycline (TET), Tetracycline]", "values": [{"measurement": "Diameter of inhibition zone", "result": 0, "unit": "mm"}]}, {"compound": "O=C(O)c1cn(C2CC2)c2cc(N3CCNCC3)c(F)cc2c1=O", "note": "[Ciprofloxacin (CFX), Ciprofloxacin]", "values": [{"measurement": "sensitivity or resistance of strain MNH 18574 to the antibiotic", "result": "resistant"}, {"measurement": "Diameter of inhibition zone", "result": 0, "unit": "mm"}]}, {"compound": "CC1(C)S[C@@H]2[C@H](NC(=O)[C@H](N)c3ccccc3)C(=O)N2[C@H]1C(=O)O", "note": "[Ampicillin (AMP), Ampicillin]", "values": [{"measurement": "sensitivity or resistance of strain MNH 18574 to the antibiotic", "result": "resistant"}, {"measurement": "Diameter of inhibition zone", "result": 0, "unit": "mm"}]}, {"compound": "CO/N=C(\\C(=O)N[C@@H]1C(=O)N2C(C(=O)O)=C(CSc3nc(=O)c(=O)[nH]n3C)CS[C@H]12)c1csc(N)n1", "note": "[Ceftriaxone (CTR), Ceftriaxone]", "values": [{"measurement": "sensitivity or resistance of strain MNH 18574 to the antibiotic", "result": "resistant"}, {"measurement": "Diameter of inhibition zone", "result": 0, "unit": "mm"}]}, {"compound": "O=C(N[C@H](CO)[C@H](O)c1ccc([N+](=O)[O-])cc1)C(Cl)Cl", "note": "[Chloramphenicol (CLM), Chloramphenicol]", "values": [{"measurement": "sensitivity or resistance of strain MNH 18574 to the antibiotic", "result": "sensitive"}, {"measurement": "Diameter of inhibition zone", "result": 27.64, "unit": "mm"}]}, {"compound": "Trimethoprim-sulfamethoxazole [Trimethoprim-sulfamethoxazole (T/S)]", "values": [{"measurement": "sensitivity or resistance of strain MNH 18574 to the antibiotic", "result": "resistant"}, {"measurement": "Diameter of inhibition zone", "result": 0, "unit": "mm"}]}, {"compound": "CC[C@H]1OC(=O)[C@H](C)[C@@H](O[C@H]2C[C@@](C)(OC)[C@@H](O)[C@H](C)O2)[C@H](C)[C@@H](O[C@@H]2O[C@H](C)C[C@H](N(C)C)[C@H]2O)[C@](C)(O)C[C@@H](C)C(=O)[C@H](C)[C@@H](O)[C@]1(C)O", "note": "[Erythromycin (ERM), Erythromycin]", "values": [{"measurement": "sensitivity or resistance of strain MNH 18574 to the antibiotic", "result": "resistant"}, {"measurement": "Diameter of inhibition zone", "result": 0, "unit": "mm"}]}, {"compound": "Gentamicin [Gentamicin (GEN)]", "values": [{"measurement": "sensitivity or resistance of strain MNH 18574 to the antibiotic", "result": "resistant"}, {"measurement": "Diameter of inhibition zone", "result": 0, "unit": "mm"}]}, {"compound": "CCC[C@@H]1C[C@@H](C(=O)N[C@@H]([C@H]2O[C@H](SC)[C@H](O)[C@@H](O)[C@H]2O)[C@@H](C)O)N(C)C1", "note": "[Lincomycin (LIN), Lincomycin]", "values": [{"measurement": "sensitivity or resistance of strain MNH 18574 to the antibiotic", "result": "resistant"}, {"measurement": "Diameter of inhibition zone", "result": 0, "unit": "mm"}]}, {"compound": "Penicillin [Penicillin (PEN)]", "values": [{"measurement": "sensitivity or resistance of strain MNH 18574 to the antibiotic", "result": "sensitive"}, {"measurement": "Diameter of inhibition zone", "result": 24.51, "unit": "mm"}]}]}
